The numbers were not newly measured in patent publication US20030027805A1, “Use of 1,4-androstadienedione as a method of increasing levels of the anabolic/androgenic steroid boldenone in humans” (priority 2000, published 2003), which cites them from elsewhere.

For the data set the following is noted: for excretion in 17-hydroxy form: urinary, after oral dosing, comparison reported in literature.

Several values for one entry are separate records, joined by “and”; a condition that tells them apart may be missing. Equal values may be shown once.

As to `C[C@]12C=CC(=O)C=C1CC[C@@H]1[C@@H]2CC[C@]2(C)C(=O)CC[C@@H]12` [androstadienedione, 1,4-androstadiene-3,17-dione], the “excretion of 17beta-hydroxysteroid metabolites compared with 1-androstenedione” value (comparison by the same authors with later 1-androstenedione study) is given as “far more”. In addition, the “total recovery of 17-OH steroids” value (human, two subjects, urine, within 24 hours after oral administration of 100 mg, boldenone conjugates plus other 17-beta hydroxysteroids) is 18.4 % of the given dose and 21.2 % of the given dose. In addition, the “urinary recovery of boldenone conjugates” value (human, two subjects, within 24 hours after oral administration of 100 mg) was 7.1 % of the initial dosage and 11.1 % of the initial dosage.

On to `C[C@]12CCC(=O)C=C1CC[C@@H]1[C@@H]2CC[C@]2(C)C(=O)CC[C@@H]12` [androstenedione, reference compound], for which the “excretion in 17-hydroxy form” value was “only in very small amounts”.

With `C[C@]12CC[C@H]3[C@@H](CCC4=CC(=O)CC[C@@]43C)[C@@H]1CC[C@@H]2O` [testosterone, reference compound], the “excretion in 17-hydroxy form” value is “only in very small amounts”.
